PMC10723784, “Investigation of the cytotoxicity induced by cannabinoids on human ovarian carcinoma cells” (Pharmacology Research & Perspectives, 2023)
Like-named read-outs stand apart in the source and are kept apart here.

Legend:
A2780/CP70 cells [1] = test: Cell cycle analysis (DAPI, NC-3000), A2780/CP70 cells; assay type: cell-based, human; details: 48 h
Procedure: (§1) Cells were seeded in T25 flasks at 4 × 10^5 cells per flask and were incubated for 48 h or until they reached confluency. […] After the incubation time elapsed cells were suspended in PBS with a density closer to 1 × 10^6cells/mL. The cells were washed twice with 1× PBS before the addition of 250 μL of lysis buffer (solution 10) supplemented with 10 μg/mL DAPI (solution 12) was added to the samples and incubated for 5 min at 37°C. After incubation, 250 μL of stabilization buffer (solution 11) was added. 12.5 μL of samples were loaded on to an A‐8 slide and were analyzed using the NC‐3000 system.

A2780 cells [2] = test: MTT cytotoxicity assay, A2780 cells; details: for IC50: Homo sapiens, read-out: IC50 cytotoxicity
Procedure: In separate experiments, cells were seeded in 96‐well plates and after 24 h elapsed they were exposed to different concentrations of drugs or vehicle. Cells were then left in the incubator for a further 24 or 48 h. Then the media was replaced with fresh media containing no drug and the cells were left in the incubator. MTT assay was performed after 96 h elapsed from the time when cells were exposed to drugs or vehicle.
The cells were then left in the incubator and MTT assay was performed 96 h following the initial exposure to the drugs.
The selective index (SI) is the ratio of mean IC50 values for non‐cancer cells to cancer cells. […] While the isobologram can be considered predominantly as a graphical depiction of drug interactions, the combination index (CI) is a quantitative representation. It relates the actual drug concentration in the combination to the concentration of the single drug that achieves the same effect. […] Here, CI analysis was used to investigate combinations at 50% cytotoxicity. To this end the IC50 of the viability dose–response curves were determined by non‐linear regression curve fit analysis (GraphPad Prism, v5.00).
CIA+B is the combination index of A and B; C A the concentration of A applied in combination; C B the concentration of B applied in combination; IC50 A the IC50 of drug A when it was applied individually to the cells; IC50 B = IC50 of drug B when it was applied individually to the cells.

[3] = MTT cytotoxicity assay, non-cancer PNT2 cells; details: human, PNT2 normal prostate epithelial cells
Procedure: Human ovarian carcinoma cells, A2780 (sensitive to chemotherapeutics), A2780/CP70 (resistant to chemotherapeutics), and non‐cancerous cells including PNT2 (normal prostate epithelial cell line), and/or ARPE19 (human retinal pigment cell line) were maintained according to the ATCC and ECACC guidelines.
In vitro chemosensitivity assays were performed using the MTT assay as previously described.[32], [33] Briefly, at 70% confluency, cells were seeded in 96‐well plates at a density of 2000 cells/well. […] After the allocated contact time had elapsed, the media was removed and 0.5% (w/v) MTT solution diluted in complete media (200 μL) was added to each well. Following a 4 h incubation, the supernatants were removed, and the formazan crystals were dissolved in dimethylsulfoxide (150 μL). The absorbance was read at 540 nm on a Tecan Infinite 50 plate UV reader.

A2780/CP70 cells [4] = test: Mitochondrial membrane potential assay (JC-1), A2780/CP70 cells; assay type: cell-based, human; details: A2780/CP70, 10-50 μM, 24 h, dose-dependent
Procedure: The mitochondrial membrane potential assay was performed to detect the loss in mitochondrial potential (de‐polarization), which is a vital step in apoptosis.[36] Cells were seeded in T25 flasks at 4 × 10^5 cells per flask and were incubated for 48 h or until they reached confluency. After the incubation time elapsed, drugs at concentrations of 10, 30, and 50 μM or vehicle were added to the flasks and further incubated for 24 h. After 24 h elapsed, the cells were harvested and suspended in PBS. Cell viability and number were determined by the cell viability assay using via1 cassettes on NC‐3000 system. The samples were diluted in PBS to 1 × 10^6 cells/mL and 2.5 μg/mL of JC‐1 dye was added to each sample. JC‐1 is a […] dye, which stains as fluorescent red as it aggregates in the mitochondrial matrix. In the absence of mitochondrial membrane potential, JC‐1 localizes in the cytosol in its fluorescent green form. Following the addition of JC‐1, the cells were incubated for 10–30 min at 37°C. […] 12.5 μL of samples were loaded on to an A‐8 slide and were analyzed using the NC‐3000 image cytometry. The degree of apoptosis (in proportional to the loss in mitochondrial membrane potential) was measured using a scatter plot of JC‐1 red fluorescence versus JC‐1 green fluorescence.

A2780 cells [5] = test: Cell cycle analysis (DAPI, NC-3000), A2780 cells; assay type: cell-based, human; details: 48 h
Procedure: as §1

ARPE19 cells = test: Annexin V assay, ARPE19 cells; assay type: cell-based, human; details: ARPE19, 50 μM, 24 h
Procedure: The Annexin V assay was performed to differentiate healthy cells from early and late apoptotic cells. Cells were seeded in T25 flasks at 2.75 × 10^5 cells per flask and were incubated for 24 h. After the incubation time elapsed, drugs at concentrations of 10, 30, and 50 μM or vehicle were added to the flasks and further incubated for 24 h. Cells were suspended in PBS at a density of 4 × 10^5 cells/mL, followed by centrifugation at 400 g for 5 min. The supernatant was removed and replaced with 100 μL of Annexin V mix, 94 μL of Roche buffer, 2 μL of Annexin V‐CF488A, 2 μL of 10 μg/mL of propodium iodide (PI), and 2 μL of Hoechst 33342 buffer. Hoechst 33342 buffer in the Annexin V mix binds to the nuclei in the sample and fluoresces violet. The early apoptotic cells are stained with Annexin V‐CF488A, which fluoresces green. The non‐viable cells are stained by PI, and the late apoptotic cells are stained by both PI and Annexin V‐CF488A, which fluoresces red and green, respectively. […] After the incubation time elapsed, 40 μL of samples were loaded on to an A‐2 slide and were analyzed immediately using the NC‐3000 system. The scatter plot of the fluorescence intensity of Annexin V‐CF488A versus the fluorescence intensity of PI was used as a representation of cells in different stages of apoptosis.

CCCCCc1cc(O)c(C/C=C(\C)CCC=C(C)C)c(O)c1 [CBG, cannabigerol]
Cells in G0/G1 phase (A2780/CP70 cells [1]; A2780/CP70, 10 μM): 86.4 ± 0.5% | Cells in G0/G1 phase (A2780/CP70 cells [1]; A2780/CP70, 30 μM): 90.6 ± 0.4% | Cells in S phase (A2780/CP70 cells [1]; A2780/CP70, 30 μM): 5.6 ± 0.6% | Cells in G2/M phase (A2780/CP70 cells [1]; A2780/CP70, 50 μM): 16.4 ± 1.9% | IC50 (A2780 cells [2]; A2780, 24 h): 15.3 ± 0.3 µM | IC50 (A2780 cells [2]; A2780, 48 h): 13.9 ± 0.6 µM | IC50 (A2780 cells [2]; A2780, 72 h): 9.4 ± 0.8 µM | IC50 (A2780 cells [2]; A2780, 96 h): 5.7 ± 0.2 µM | Selectivity index (A2780 cells [2]; IC50 ARPE19 / IC50 A2780, 24 h): 2.09 | Selectivity index (A2780 cells [2]; IC50 ARPE19 / IC50 A2780, 48 h): 1.53 | Selectivity index (A2780 cells [2]; IC50 ARPE19 / IC50 A2780, 72 h): 2.04 | Selectivity index (A2780 cells [2]; IC50 ARPE19 / IC50 A2780, 96 h): 3.05 | Selectivity index (A2780 cells [2]; IC50 PNT2 / IC50 A2780, 24 h): 2.43 | Selectivity index (A2780 cells [2]; IC50 PNT2 / IC50 A2780, 48 h): 1.65 | Selectivity index (A2780 cells [2]; IC50 PNT2 / IC50 A2780, 72 h): 2.12 | Selectivity index (A2780 cells [2]; IC50 PNT2 / IC50 A2780, 96 h): 3.20 | IC50 at 24 h [3]: 37.2 ± 2.1 µM | IC50 at 48 h [3]: 22.9 ± 1.5 µM | IC50 at 72 h [3]: 19.9 ± 0.3 µM | IC50 at 96 h [3]: 18.3 ± 1.3 µM | Percentage of apoptotic cells (loss of mitochondrial membrane potential) (A2780/CP70 cells [4]): induced an increase in the percentage of apoptotic cells | Cells in G0/G1 phase (A2780 cells [5]; A2780, 10 μM): 79.1 ± 0.4% | Cells in G0/G1 phase (A2780 cells [5]; A2780, 30 μM): 80.2 ± 1.3% | Cells in G0/G1 phase (A2780 cells [5]; A2780, 50 μM): 67.6 ± 1.1% | Cells in subG1 phase (A2780 cells [5]; A2780, 50 μM): 8.7 ± 0.6% | Cells in early apoptosis (ARPE19 cells): 54 ± 2.1% | Cells in late apoptosis (ARPE19 cells): 5.6 ± 1.8%
